What was measured:
Test in all cases: radiometric filter-binding kinase assay, Kinase HotSpot
Conditions in all cases: compound 0.5 µM; ATP 10 µM
ABL2 (human) = ABL2 (human) (UniProt P42684)
AKT3 (human) = AKT3 (human) (UniProt Q9Y243)
ALK (human) = ALK (human) (UniProt Q9UM73)
CAMK2A (human) = CAMK2A (human) (UniProt Q9UQM7)
CDK5 CDK5R1 p25 (human) = CDK5 CDK5R1 p25 (human) (UniProt Q00535+Q15078)
CDK6 CCND3 (human) = CDK6 CCND3 (human) (UniProt P30281+Q00534)
CDK9 CCNT1 (human) = CDK9 CCNT1 (human) (UniProt P50750+O60563)
CHEK2 (human) = CHEK2 (human) (UniProt O96017)
CSNK1A1 (human) = CSNK1A1 (human) (UniProt P48729)
DAPK2 (human) = DAPK2 (human) (UniProt Q9UIK4)
EPHA7 (human) = EPHA7 (human) (UniProt Q15375)
EPHB2 (human) = EPHB2 (human) (UniProt P29323)
ERBB2 (human) = ERBB2 (human) (UniProt P04626)
FGR (human) = FGR (human) (UniProt P09769)
GSK3A (human) = GSK3A (human) (UniProt P49840)
HCK (human) = HCK (human) (UniProt P08631)
HIPK4 (human) = HIPK4 (human) (UniProt Q8NE63)
MAP3K14 (human) = MAP3K14 (human) (UniProt Q99558)
MAP3K2 (human) = MAP3K2 (human) (UniProt Q9Y2U5)
MAP3K7 TAB1 (human) = MAP3K7 TAB1 (human) (UniProt O43318+Q15750)
MAP3K8 (human) = MAP3K8 (human) (UniProt P41279)
MAPK10 (human) = MAPK10 (human) (UniProt P53779)
MAPK9 (human) = MAPK9 (human) (UniProt P45984)
MARK3 (human) = MARK3 (human) (UniProt P27448)
MKNK2 (human) = MKNK2 (human) (UniProt Q9HBH9)
MLTK (human) = MLTK (human) (UniProt Q9NYL2)
MYLK2 (human) = MYLK2 (human) (UniProt Q9H1R3)
NTRK1 (human) = NTRK1 (human) (UniProt P04629)
NUAK2 (human) = NUAK2 (human) (UniProt Q9H093)
PKN2 (human) = PKN2 (human) (UniProt Q16513)
PLK3 (human) = PLK3 (human) (UniProt Q9H4B4)
PRKACA (human) = PRKACA (human) (UniProt P17612)
PRKCG (human) = PRKCG (human) (UniProt P05129)
PTK2 (human) = PTK2 (human) (UniProt Q05397)
RPS6KA1 KD1 KD2 (human) = RPS6KA1 KD1 KD2 (human) (UniProt Q15418)
RPS6KA2 KD1 KD2 (human) = RPS6KA2 KD1 KD2 (human) (UniProt Q15349)
RPS6KA4 KD2 (human) = RPS6KA4 KD2 (human) (UniProt O75676)
SRPK3 (human) = SRPK3 (human) (UniProt Q9UPE1)
TEK (human) = TEK (human) (UniProt Q02763)
TTK (human) = TTK (human) (UniProt P33981)
ZAP70 (human) = ZAP70 (human) (UniProt P43403)

Sequence of CSNK1A1 (human) (P48729 whole entry, looked up): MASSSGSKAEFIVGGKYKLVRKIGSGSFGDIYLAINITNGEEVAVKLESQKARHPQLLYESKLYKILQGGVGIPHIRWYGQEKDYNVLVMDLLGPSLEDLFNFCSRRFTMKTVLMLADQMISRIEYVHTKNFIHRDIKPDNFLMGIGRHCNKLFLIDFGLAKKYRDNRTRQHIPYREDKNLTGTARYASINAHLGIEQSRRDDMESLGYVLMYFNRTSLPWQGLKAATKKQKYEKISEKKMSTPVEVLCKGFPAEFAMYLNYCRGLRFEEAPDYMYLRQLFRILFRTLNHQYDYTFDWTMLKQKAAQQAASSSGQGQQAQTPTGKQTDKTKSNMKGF
Sequence of TEK (human) (Q02763 whole entry, looked up): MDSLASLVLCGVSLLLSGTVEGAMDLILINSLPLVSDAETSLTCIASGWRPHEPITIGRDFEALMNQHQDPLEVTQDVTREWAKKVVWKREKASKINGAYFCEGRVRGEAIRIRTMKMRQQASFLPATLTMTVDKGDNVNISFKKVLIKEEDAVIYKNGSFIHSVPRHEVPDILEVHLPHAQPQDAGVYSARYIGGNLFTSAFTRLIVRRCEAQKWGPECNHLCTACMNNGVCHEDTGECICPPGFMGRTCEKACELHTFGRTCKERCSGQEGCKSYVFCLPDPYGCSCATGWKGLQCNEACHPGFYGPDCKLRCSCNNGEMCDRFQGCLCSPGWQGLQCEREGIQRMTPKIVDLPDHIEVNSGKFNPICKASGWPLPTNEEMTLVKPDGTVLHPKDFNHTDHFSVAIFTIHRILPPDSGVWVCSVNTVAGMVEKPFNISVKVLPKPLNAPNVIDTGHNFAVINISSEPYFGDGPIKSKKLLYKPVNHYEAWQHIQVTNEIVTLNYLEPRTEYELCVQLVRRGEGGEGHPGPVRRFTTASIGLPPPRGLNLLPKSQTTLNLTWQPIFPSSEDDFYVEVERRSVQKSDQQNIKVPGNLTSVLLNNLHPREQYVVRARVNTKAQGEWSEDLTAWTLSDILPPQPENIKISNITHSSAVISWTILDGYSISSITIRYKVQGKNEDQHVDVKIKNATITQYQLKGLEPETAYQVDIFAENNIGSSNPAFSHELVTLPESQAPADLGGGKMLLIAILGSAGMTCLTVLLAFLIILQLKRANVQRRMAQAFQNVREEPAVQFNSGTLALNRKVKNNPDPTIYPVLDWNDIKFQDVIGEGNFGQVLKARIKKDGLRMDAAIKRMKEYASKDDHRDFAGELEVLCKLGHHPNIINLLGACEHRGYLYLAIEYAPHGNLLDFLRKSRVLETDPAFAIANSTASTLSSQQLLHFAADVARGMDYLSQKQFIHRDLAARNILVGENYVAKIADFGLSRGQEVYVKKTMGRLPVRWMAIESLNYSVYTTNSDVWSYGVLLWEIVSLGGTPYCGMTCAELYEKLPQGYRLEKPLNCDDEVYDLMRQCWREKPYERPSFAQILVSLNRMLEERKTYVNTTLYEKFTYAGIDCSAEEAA
Sequence of NUAK2 (human) (Q9H093 whole entry, looked up): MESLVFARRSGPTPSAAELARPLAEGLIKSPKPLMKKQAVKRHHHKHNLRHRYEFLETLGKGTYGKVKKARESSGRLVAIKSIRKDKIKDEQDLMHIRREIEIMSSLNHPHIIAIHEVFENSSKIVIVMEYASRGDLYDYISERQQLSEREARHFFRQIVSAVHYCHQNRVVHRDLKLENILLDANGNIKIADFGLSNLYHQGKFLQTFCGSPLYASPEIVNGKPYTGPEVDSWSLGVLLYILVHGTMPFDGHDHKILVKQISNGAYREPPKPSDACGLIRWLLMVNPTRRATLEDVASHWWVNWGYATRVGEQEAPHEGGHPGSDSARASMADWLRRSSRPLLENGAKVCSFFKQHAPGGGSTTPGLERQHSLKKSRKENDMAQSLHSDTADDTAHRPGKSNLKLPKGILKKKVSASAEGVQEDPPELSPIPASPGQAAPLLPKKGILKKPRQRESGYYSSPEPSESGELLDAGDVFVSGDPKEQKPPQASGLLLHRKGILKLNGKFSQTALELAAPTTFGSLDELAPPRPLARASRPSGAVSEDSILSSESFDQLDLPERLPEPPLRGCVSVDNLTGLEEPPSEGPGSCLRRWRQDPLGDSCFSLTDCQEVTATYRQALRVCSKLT
Sequence of CAMK2A (human) (Q9UQM7 whole entry, looked up): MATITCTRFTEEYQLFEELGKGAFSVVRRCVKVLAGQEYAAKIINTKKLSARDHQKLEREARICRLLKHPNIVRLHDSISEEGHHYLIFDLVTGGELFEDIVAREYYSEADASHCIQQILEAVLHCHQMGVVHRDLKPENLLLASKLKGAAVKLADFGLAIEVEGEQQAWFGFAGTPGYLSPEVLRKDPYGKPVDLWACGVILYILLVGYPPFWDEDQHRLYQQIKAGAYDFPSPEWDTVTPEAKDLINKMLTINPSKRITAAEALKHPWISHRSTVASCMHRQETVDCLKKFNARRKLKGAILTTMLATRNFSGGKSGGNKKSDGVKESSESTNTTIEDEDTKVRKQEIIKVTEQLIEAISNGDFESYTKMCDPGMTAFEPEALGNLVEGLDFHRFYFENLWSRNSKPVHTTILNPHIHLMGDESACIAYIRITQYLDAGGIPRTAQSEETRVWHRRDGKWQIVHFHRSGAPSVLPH
Sequence of MYLK2 (human) (Q9H1R3 whole entry, looked up): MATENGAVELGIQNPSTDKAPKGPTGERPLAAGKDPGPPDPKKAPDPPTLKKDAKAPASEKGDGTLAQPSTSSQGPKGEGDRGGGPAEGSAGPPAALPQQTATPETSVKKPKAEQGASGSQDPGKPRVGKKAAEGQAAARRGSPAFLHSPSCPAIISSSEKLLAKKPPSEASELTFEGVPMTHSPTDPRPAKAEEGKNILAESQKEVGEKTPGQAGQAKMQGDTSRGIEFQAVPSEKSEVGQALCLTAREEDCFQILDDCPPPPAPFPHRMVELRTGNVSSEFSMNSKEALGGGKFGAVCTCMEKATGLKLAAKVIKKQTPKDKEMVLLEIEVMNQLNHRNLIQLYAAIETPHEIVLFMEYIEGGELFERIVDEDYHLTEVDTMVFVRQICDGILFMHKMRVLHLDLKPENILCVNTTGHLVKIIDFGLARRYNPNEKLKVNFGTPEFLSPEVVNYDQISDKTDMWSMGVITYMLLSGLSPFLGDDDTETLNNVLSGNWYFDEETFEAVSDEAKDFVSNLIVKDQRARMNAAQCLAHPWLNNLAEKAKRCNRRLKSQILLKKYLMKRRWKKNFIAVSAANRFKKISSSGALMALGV
Sequence of FGR (human) (P09769 whole entry, looked up): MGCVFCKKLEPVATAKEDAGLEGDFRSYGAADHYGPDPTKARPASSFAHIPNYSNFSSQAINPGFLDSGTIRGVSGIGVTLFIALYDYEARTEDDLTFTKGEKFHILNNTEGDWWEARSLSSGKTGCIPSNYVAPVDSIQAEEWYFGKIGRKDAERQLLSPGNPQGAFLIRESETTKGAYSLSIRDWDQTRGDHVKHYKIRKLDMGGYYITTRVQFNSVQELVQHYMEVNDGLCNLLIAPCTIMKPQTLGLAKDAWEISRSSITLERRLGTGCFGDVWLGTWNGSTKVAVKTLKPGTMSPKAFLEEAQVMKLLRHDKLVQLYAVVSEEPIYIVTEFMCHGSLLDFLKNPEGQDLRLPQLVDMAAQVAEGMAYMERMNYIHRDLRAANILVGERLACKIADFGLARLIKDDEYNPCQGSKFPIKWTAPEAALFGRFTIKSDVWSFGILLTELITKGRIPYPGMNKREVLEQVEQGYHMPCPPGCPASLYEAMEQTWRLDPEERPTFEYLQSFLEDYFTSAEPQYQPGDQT
Sequence of HCK (human) (P08631 whole entry, looked up): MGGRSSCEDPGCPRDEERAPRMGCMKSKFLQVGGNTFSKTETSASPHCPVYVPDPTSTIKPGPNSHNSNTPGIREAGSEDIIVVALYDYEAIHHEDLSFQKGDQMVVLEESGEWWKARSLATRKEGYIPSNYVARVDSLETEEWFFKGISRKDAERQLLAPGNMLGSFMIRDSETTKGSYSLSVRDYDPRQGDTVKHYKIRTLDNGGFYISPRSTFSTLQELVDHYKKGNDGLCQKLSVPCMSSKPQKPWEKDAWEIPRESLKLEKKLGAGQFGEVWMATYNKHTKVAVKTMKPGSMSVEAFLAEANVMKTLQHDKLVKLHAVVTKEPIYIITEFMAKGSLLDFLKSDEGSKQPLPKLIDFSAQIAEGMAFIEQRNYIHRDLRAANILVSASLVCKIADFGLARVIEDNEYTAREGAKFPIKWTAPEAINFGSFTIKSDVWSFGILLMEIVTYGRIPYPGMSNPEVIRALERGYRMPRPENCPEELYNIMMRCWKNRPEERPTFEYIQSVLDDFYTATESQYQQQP
Sequence of RPS6KA4 KD2 (human) (O75676 whole entry, looked up): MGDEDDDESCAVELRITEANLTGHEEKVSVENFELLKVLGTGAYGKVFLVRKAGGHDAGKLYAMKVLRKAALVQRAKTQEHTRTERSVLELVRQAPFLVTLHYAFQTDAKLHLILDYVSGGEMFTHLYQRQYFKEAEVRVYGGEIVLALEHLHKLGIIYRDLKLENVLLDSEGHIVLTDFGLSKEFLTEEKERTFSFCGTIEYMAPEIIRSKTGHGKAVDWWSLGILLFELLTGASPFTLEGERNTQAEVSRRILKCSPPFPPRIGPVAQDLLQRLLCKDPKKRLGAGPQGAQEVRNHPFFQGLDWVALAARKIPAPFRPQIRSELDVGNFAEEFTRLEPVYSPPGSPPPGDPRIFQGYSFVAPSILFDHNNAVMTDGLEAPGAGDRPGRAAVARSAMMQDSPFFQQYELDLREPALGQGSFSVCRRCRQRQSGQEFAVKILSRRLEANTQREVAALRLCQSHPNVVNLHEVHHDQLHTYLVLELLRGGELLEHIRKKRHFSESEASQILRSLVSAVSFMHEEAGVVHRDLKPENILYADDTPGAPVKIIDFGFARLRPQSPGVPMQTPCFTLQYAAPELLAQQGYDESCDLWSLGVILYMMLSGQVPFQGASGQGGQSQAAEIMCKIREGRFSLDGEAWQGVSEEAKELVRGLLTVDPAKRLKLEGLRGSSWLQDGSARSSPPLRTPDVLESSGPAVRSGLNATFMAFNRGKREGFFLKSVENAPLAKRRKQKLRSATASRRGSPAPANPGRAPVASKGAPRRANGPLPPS

Oc1ccc(Nc2nc(-c3ccc(Cl)cc3)cs2)cc1
residual activity (ABL2 (human)): 93.4%
residual activity (AKT3 (human)): 105%
residual activity (ALK (human)): 111%
residual activity (CAMK2A (human)): 106%
residual activity (CDK5 CDK5R1 p25 (human)): 85.9%
residual activity (CDK6 CCND3 (human)): 109%
residual activity (CDK9 CCNT1 (human)): 87.8%
residual activity (CHEK2 (human)): 97.9%
residual activity (CSNK1A1 (human)): 96.4%
residual activity (DAPK2 (human)): 107%
residual activity (EPHA7 (human)): 97.7%
residual activity (EPHB2 (human)): 101%
residual activity (ERBB2 (human)): 96.9%
residual activity (FGR (human)): 96.4%
residual activity (GSK3A (human)): 97.4%
residual activity (HCK (human)): 96.1%
residual activity (HIPK4 (human)): 101%
residual activity (MAP3K14 (human)): 102%
residual activity (MAP3K2 (human)): 92.1%
residual activity (MAP3K7 TAB1 (human)): 95.3%
residual activity (MAP3K8 (human)): 94.9%
residual activity (MAPK10 (human)): 101%
residual activity (MAPK9 (human)): 98.3%
residual activity (MARK3 (human)): 95.3%
residual activity (MKNK2 (human)): 84.5%
residual activity (MLTK (human)): 92.7%
residual activity (MYLK2 (human)): 97.1%
residual activity (NTRK1 (human)): 104%
residual activity (NUAK2 (human)): 137%
residual activity (PKN2 (human)): 93.8%
residual activity (PLK3 (human)): 97.4%
residual activity (PRKACA (human)): 105%
residual activity (PRKCG (human)): 87.3%
residual activity (PTK2 (human)): 99.4%
residual activity (RPS6KA1 KD1 KD2 (human)): 97.7%
residual activity (RPS6KA2 KD1 KD2 (human)): 101%
residual activity (RPS6KA4 KD2 (human)): 91.5%
residual activity (SRPK3 (human)): 98.1%
residual activity (TEK (human)): 104%
residual activity (TTK (human)): 87.6%
residual activity (ZAP70 (human)): 94.7%

O=C(O)/C=C/c1cc(Br)c(Br)c(Br)c1Br
residual activity (ABL2 (human)): 88.7%
residual activity (AKT3 (human)): 92.7%
residual activity (ALK (human)): 98.6%
residual activity (CAMK2A (human)): 64.4%
residual activity (CDK5 CDK5R1 p25 (human)): 84.1%
residual activity (CDK6 CCND3 (human)): 102%
residual activity (CDK9 CCNT1 (human)): 58.9%
residual activity (CHEK2 (human)): 77.5%
residual activity (CSNK1A1 (human)): 79.3%
residual activity (DAPK2 (human)): 104%
residual activity (EPHA7 (human)): 94.1%
residual activity (EPHB2 (human)): 103%
residual activity (ERBB2 (human)): 95.4%
residual activity (FGR (human)): 98.4%
residual activity (GSK3A (human)): 91.5%
residual activity (HCK (human)): 99.9%
residual activity (HIPK4 (human)): 102%
residual activity (MAP3K14 (human)): 100%
residual activity (MAP3K2 (human)): 102%
residual activity (MAP3K7 TAB1 (human)): 98.4%
residual activity (MAP3K8 (human)): 83%
residual activity (MAPK10 (human)): 96.3%
residual activity (MAPK9 (human)): 96.4%
residual activity (MARK3 (human)): 104%
residual activity (MKNK2 (human)): 53.8%
residual activity (MLTK (human)): 89.4%
residual activity (MYLK2 (human)): 86.8%
residual activity (NTRK1 (human)): 91.1%
residual activity (NUAK2 (human)): 98.9%
residual activity (PKN2 (human)): 95.6%
residual activity (PLK3 (human)): 73.6%
residual activity (PRKACA (human)): 98.4%
residual activity (PRKCG (human)): 89.4%
residual activity (PTK2 (human)): 94%
residual activity (RPS6KA1 KD1 KD2 (human)): 90.5%
residual activity (RPS6KA2 KD1 KD2 (human)): 75.8%
residual activity (RPS6KA4 KD2 (human)): 103%
residual activity (SRPK3 (human)): 66.9%
residual activity (TEK (human)): 94.4%
residual activity (TTK (human)): 98.1%
residual activity (ZAP70 (human)): 98.5%
